Read-outs that look alike come from different tables or passages of the source. Blank lines part the entries; values can stand above or below the molecule they belong to.
Tests used:
A549 = test: Growth inhibition assay (MTS), A549; type: cell-based; conditions: 3 to 5 days
Protocol: (§1) Meayamycin, 4-TEGylated meayamycin, and 4-TEGylated FR901464 (right fragment) compounds were produced using the above protocols. The compounds were dissolved in dimethyl sulfoxide (DMSO) as 10 mM stocks and stored at −20° C. Prior to assays being performed, aliquots were thawed at room temperature and dilutions were prepared in RPMI 1640 medium containing 2% DMSO at 2×the desired concentration prior to addition to the cells.
(§2) The cells were grown at 37° C. in an atmosphere containing 5% carbon dioxide in corning cell culture flasks (25 cm^2) in RPMI 1640 cell culture medium containing 10% fetal bovine serum, 1% Penicillin/Streptomycin, and 1% L-Glutamine.
(§3) Cells were plated in 96 well plates at an initial density of 2,000 cells per well in 100 μL of medium and were incubated for 24 hours prior to compound addition. […] The compound was added to the cells at 2× the desired concentration in 100 μL cell culture medium. The cells were then incubated for an additional 3 to 5 days. Cell proliferation was measured using a commercial MTS solution (20 μL per well). The absorbance (at 490 nm and 630 nm) was measured by a Spectromax M2 plate reader (Molecular Devices). Each concentration treatment was done in quadruplets and the final numbers were averaged.

JHU 012 = test: Growth inhibition assay (MTS), JHU 012; type: cell-based; conditions: 3 to 5 days
Protocol: as §1, §2, §3

HCT116 = test: Growth inhibition assay (MTS), HCT116; type: cell-based
Protocol: as §1, §2, §3

MDA-MB-231 = test: Growth inhibition assay (MTS), MDA-MB-231; type: cell-based; conditions: 3 to 5 days
Protocol: as §1, §2, §3

HEK-293-II = test: Growth inhibition assay (MTS), HEK-293-II; type: cell-based
Protocol: as §1, §2, §3

PCI 13 = test: Growth inhibition assay (MTS), PCI 13; type: cell-based; conditions: 3 to 5 days
Protocol: as §1, §2, §3

cancer cell = test: Cancer cell antiproliferative activity (background statement); type: cell-based
Description: This pharmacological profile for FR901464 has drawn considerable interest, focusing on its potential as an anticancer agent.

MCF-7 = test: Growth inhibition assay (MTS), MCF-7; type: cell-based
Protocol: as §1, §2
Cells were plated in 96 well plates at an initial density of 2,000 cells per well in 100 μL of medium and were incubated for 24 hours prior to compound addition. Serial two-fold dilutions were used in this experiment from 100 nM to 0.000191 nM. The compound was added to the cells at 2× the desired concentration in 100 μL cell culture medium. The cells were then incubated for an additional 3 to 5 days. Cell proliferation was measured using a commercial MTS solution (20 μL per well). The absorbance (at 490 nm and 630 nm) was measured by a Spectromax M2 plate reader (Molecular Devices). Each concentration treatment was done in quadruplets and the final numbers were averaged.

[1] = system: pre-mRNA splicing in HEK-293-II cells; test: HEK-293-II cell-based splicing inhibition assay (luciferase, RT-PCR)
Protocol: Splicing inhibition by PEGylated meayamycin was evaluated using the published HEK-293-II cell-based assay. In short, luciferase expression increases when pre-mRNA splicing is inhibited. Yang Gao et al., published online at Chem Bio Chem. Nov. 22, 2012 (DOI: 10.1002/cbic.201200558). […] (FIG. 1). Pre-mRNA splicing inhibition by 4-TEGylated meayamycin was examined in HEK-293-II cells over 72 h. The splicing inhibition, as manifested by the luciferase activity, in the 4-TEGylated meayamycin-treated cells persisted for 48 h, which was different from that in the meayamycin-treated cells. (FIG. 2).

MCF-7 cells = MCF-7 cells at 20 nM; cited from earlier work
tumor = conditions: mouse model; cited from earlier work
[2] = HEK-293-II, 3 to 5 days, MTS, read-out: GI50

GI50 (A549; Homo sapiens): 2200 nM
GI50 (HCT116; Homo sapiens, HCT-116, HCT116, 3 to 5 days, MTS, read-out: GI50): 2200 nM
IC50 (HCT116; Homo sapiens, HCT-116, read-out: GI150, inhibition of HCT-116 proliferation): 1500 nM
GI50 (MDA-MB-231; Homo sapiens): 1500 nM
SMILES: C=C[C@H]1OC(C)(C)C[C@@]2(CO2)[C@@H]1OCCOCCOCCOCCN=[N+]=[N-] [4-TEGylated FR901464 (right fragment)]
GI50 (JHU 012): 2000 nM
GI50 (HEK-293-II; [2]): 8900 nM
GI50 (PCI 13): 3700 nM
cancer cell antiproliferative activity (cancer cell): high cancer cell antiproliferative activity

SMILES: CC(=O)O[C@@H](C)/C=C\C(=O)N[C@@H]1C[C@H](C)[C@H](C/C=C(C)/C=C/[C@H]2OC(C)(C)C[C@@]3(CO3)[C@@H]2OCCOCCOCCOCCN=[N+]=[N-])O[C@@H]1C [4-TEGylated meayamycin]
GI50 (MCF-7; Homo sapiens, MCF7, 3 to 5 days): 2.4 nM
GI50 (HCT116; Homo sapiens, HCT-116): 0.1 nM
GI50 (HEK-293-II): 46 nM
time the splicing inhibition (luciferase activity) persisted ([1]; HEK-293-II cells examined over 72 h, FIG. 2): 48 h
RT-PCR analysis of total RNA: pre-mRNA splicing ([1]; HEK-293-II cells, FIG. 1): inhibited pre-mRNA splicing
IC50 ([1]; HEK-293-II, luciferase, 16-h treatment, average of three independent experiments, read-out: IC150, inhibitory activity towards pre-mRNA splicing): 2.4 nM

SMILES: CC(/C=C/[C@H]1OC(C)(C)C[C@@]2(CO2)[C@@H]1CCCOCCOCCOCCN=[N+]=[N-])=C\C[C@@H]1O[C@H](C)C(NC(=O)/C=C\[C@H](C)OC(=O)N2CCOCC2)C[C@@H]1C (stereo partly shown) [4-TEGylated-FR901464 analog]
cancer cell antiproliferative activity (cancer cell): high cancer cell antiproliferative activity

SMILES: CC(=O)O[C@@H](C)/C=C\C(=O)N[C@@H]1C[C@H](C)[C@H](C/C=C(C)/C=C/[C@H]2O[C@](C)(O)C[C@@]3(CO3)[C@@H]2O)O[C@@H]1C [FR901464]
mRNA levels of p53, p21, c-myc, and E2F-1 (MCF-7 cells): lowers the mRNA levels
concentrations at which antitumor activity is exhibited (tumor): 0.056 to 0.18 mg/kg

SMILES: CC(=O)O[C@@H](C)/C=C\C(=O)N[C@@H]1C[C@H](C)[C@H](C/C=C(C)/C=C/[C@H]2OC(C)(C)C[C@@]3(CO3)[C@@H]2O)O[C@@H]1C [meayamycin, reference compound]
GI50 (MCF-7; 3 to 5 days): 0.8 nM
GI50 (A549): 0.26 nM
GI50 (JHU 012): 4.7 nM
GI50 (HCT116; HCT116, 3 to 5 days, MTS, read-out: GI50): 0.038 nM
GI50 (MDA-MB-231): 0.07 nM
GI50 (HEK-293-II; [2]): 7.8 nM
GI50 (PCI 13): 4.8 nM

SMILES: C=C[C@H]1OC(C)(C)C[C@@]2(CO2)[C@@H]1O [right fragment without PEGylation, (3R,4R,5R)-7,7-dimethyl-5-vinyl-1,6-dioxaspiro[2.5]octan-4-ol]
antiproliferation activity (HCT116; even at 200 μM): no antiproliferation activity

Reference: patent US9771377B2, “Synthesis of FR901464 and analogs with antitumor activity” (University of Pittsburgh—Of the Commonwealth System of …, priority 2012, dated 2017)
